Test results taken from patent publication US20090088411A1, “No-donating corticosteroid with improved pharmacokinetic, anti-inflammatory and vasodilatory properties” (Topigen Pharmaceuticals Inc., priority 2007, published 2009).

Legend:
C-reactive protein (CRP) = test: Plasma CRP levels; assay type: in vivo, humans; details: for CRP (mg/L): mean (SD)
Procedure: (§1) Although this study was only powered for neutrophils, the following parameters were also evaluated: sputum total cell and differential cell counts, using known methods, on days 0, 15 and day 22; pre-dose FEV1 measurements on days 0, 1, 14, 15 and 22; peak flow measurements throughout the study (miniwright meter); use of daily rescue medication (salbutamol) throughout the study; the response to methacholine challenge test; and the eNO levels (chemiluminescence after reaction with ozone) on days 0, 15 and 22 and plasma CRP levels on days 0, 15 and 22.
(§2) Those subjects who completed the 14-day run-in period were assigned to receive either an inhaled version of a compound of the present invention (in this case, budesonide 21-(4′-nitrooxymethyl)benzoate, designated hereafter as “TPI-1020”) or budesonide over a 21-day period. The doses administered were based on equimolar amounts of budesonide and were as follows: budesonide 400 μg bid for 14 days then 800 μg bid for 7 days; TPI-1020: 600 μg bid for 14 days then 1200 μg bid for 7 days. Study treatments were delivered in lactose-based blends using the capsule-based Aeroliser dry powder inhaler. Budesonide capsules (Miflonide®, Novartis Pharmaceuticals) delivered 383 μg as compared to 423 μg of budesonide for TPI-1020 (equivalent to 9.5% more budesonide delivered to the body in the TPI-1020 group). However, the fine particle dose of budesonide was 104 μg for the budesonide capsules and only 78 μg for the TPI-1020 capsules (equivalent to 25% less budesonide delivered to the lung in the TPI-1020 group). No other asthma medication except rescue salbutamol was permitted during the study.

[1] = Methacholine challenge test (PC20); assay type: in vivo, humans; details: mean (SD)
Procedure: as §1, §2

blood eosinophils = test: Blood eosinophils; assay type: in vivo, humans; details: mean (SD)
Procedure: as §2

sputum eosinophils = test: Sputum differential cell count: eosinophils; assay type: in vivo, humans; details: mean (SD)
Procedure: as §1, §2

[2] = Peak flow measurements (PEF, miniwright meter); assay type: in vivo, humans; details: mean (SD)
Procedure: as §1, §2

blood lymphocytes = test: Blood lymphocytes; assay type: in vivo, humans; details: mean (SD)
Procedure: as §2

[3] = system: HPA (hypothalamic-pituitary-adrenal) axis; test: 24-hour urinary free cortisol; details: vs baseline
Text: (§4) This undesirable HPA axis suppression is typically measured by a reduction in urinary cortisol excretion.
(§5) Safety parameters consisted of adverse events and serious adverse events, vital signs, asthma symptoms, laboratory determinations of CBC, urinalysis, regular blood biochemistry, plasma C-reactive protein (CRP), plasma and urinary free cortisol levels, spirometry and electrocardiograms (ECGs).

[4] = system: HPA (hypothalamic-pituitary-adrenal) axis; test: Morning plasma cortisol level
Text: as §4, §5

[5] = Asthma control scoring system questionnaire (ACSS); assay type: in vivo, humans; details: mean (SD)
Procedure: as §2

[6] = parameters: species or system humans; details: human, in vivo
Text: (§3) A clinical study was undertaken in humans to test certain aspects of a preferred NO-donating budesonide derivative, TPI-1020, as compared to the corticosteroid, budesonide which was not modified with a NO-donating moiety. Specifically, the objectives of this study were to determine the safety, pharmacodynamic and pharmacokinetic activity of multiple doses of inhaled NO-donating budesonide derivatives compared to that of equimolar doses of inhaled budesonide in subjects with mild asthma who smoke. We chose patients with asthma who smoke since these patients had reported to have not only an increase in eNO but also an increase in neutrophils within their sputum (as described in COPD). While assessing the safety of these compounds in such patients we could thus explore the effects of the same in patients with increased sputum neutrophils.
as §2
The total number of adverse events reported by patients receiving budesonide and TPI-1020 is graphically depicted in FIG. 1. More specifically, FIG. 1 depicts the total number of either treatment-related or physician-determined adverse events for each drug during the 21 day therapeutic period.

FEV1 spirometry = assay type: in vivo, humans; details: mean (SD)
Procedure: as §1, §2

[7] = Use of daily rescue medication (salbutamol); assay type: in vivo, humans; details: mean (SD)
Procedure: as §1, §2

[8] = system: exhaled nitric oxide (eNO); test: Exhaled NO levels (chemiluminescence); assay type: in vivo, humans; details: for eNO (ppb): mean (SD)
Procedure: as §1, §2

sputum neutrophils = test: Sputum differential cell count: neutrophils; assay type: in vivo, humans; details: for median sputum neutrophils: all patients
Text: as §3, §1, §2
The sample size was chosen to provide information about the primary study objective (safety) and with the power to detect a 20% difference in the decrease in sputum neutrophils with TPI-1020, versus that occurring with budesonide. There are no published studies in mild smokers with asthma that have described the variability in sputum neutrophils. However, based on the COPD publication by Gamble et al., almost all patients with COPD have increased sputum neutrophils (>20%). We calculated that if 13 subjects per group completed the study, a difference of 20% in neutrophils (%) between groups could be detected with a power of 80%.

[9] = Supine and standing blood pressure (vital signs), clinical study; assay type: in vivo, humans; details: after 22 days; p=0.015 between groups
Procedure: as §2

effect on 24-hour urinary free cortisol [3]: significantly decreased
morning plasma cortisol level ([4]; baseline): 13.1 µg/dL
morning plasma cortisol level ([4]; day 15): 10.9 µg/dL
morning plasma cortisol level ([4]; day 22): 11.4 µg/dL
SMILES: CCCC1O[C@@H]2C[C@H]3[C@@H]4CCC5=CC(=O)C=C[C@]5(C)[C@H]4[C@@H](O)C[C@]3(C)[C@]2(C(=O)CO)O1 (some centres unmarked) [budesonide, reference compound]
patients in whom CRP decreased (C-reactive protein (CRP); 22 days of therapy compared to baseline): 33.2%
CRP (mg/L) (C-reactive protein (CRP); Baseline): 2.7 (4.3) mg/L
CRP (mg/L) (C-reactive protein (CRP); Day 22): 2.5 (1.4) mg/L
increase in plasma CRP (C-reactive protein (CRP); day 15 versus baseline, p=0.03 between groups): 0.7 mg/L
PC20 (mg/ml) ([1]; Baseline): 1.4 (1.3) mg/ml
PC20 (mg/ml) ([1]; Day 22): 2.0 (1.6) mg/ml
Blood eos (%) (blood eosinophils; Baseline): 2.3 (2.3) %
Blood eos (%) (blood eosinophils; Day 22): 2.1 (1.6) %
Sputum eos (%) (sputum eosinophils; Baseline): 2.4 (3.3) %
Sputum eos (%) (sputum eosinophils; Day 22): 1.0 (1.0) %
PEF (AM, L/min) ([2]; Baseline): 405.5 (91) L/min
PEF (AM, L/min) ([2]; Day 22): 423.4 (89.5) L/min
Blood lymphocytes (%) (blood lymphocytes; Baseline): 14.9 (13) %
Blood lymphocytes (%) (blood lymphocytes; Day 22): 22.5 (15.8) %
ACSS ([5]; Baseline): 73.1 (14)
ACSS ([5]; Day 22): 82.4 (8.4)
severe adverse events [6]: one
drug-related adverse events ([6]; 21 days): 9
number of subjects that reported adverse events ([6]; 21 days): 7
total treatment-emergent adverse events ([6]; 21 days): 39
FEV1 (ITT, L) (FEV1 spirometry; Baseline): 3.3 (0.8) L
FEV1 (PD, L) (FEV1 spirometry; Baseline): 3.2 (0.7) L
FEV1 (PD, L) (FEV1 spirometry; Day 1): 3.1 (0.6) L
FEV1 (PD, L) (FEV1 spirometry; Day 14): 3.3 (0.7) L
FEV1 (PD, L) (FEV1 spirometry; Day 15): 3.3 (0.7) L
FEV1 (ITT, L) (FEV1 spirometry; Day 22): 3.3 (0.8) L
FEV1 (PD, L) (FEV1 spirometry; Day 22): 3.3 (0.7) L
Doses of Rescue Rx ([7]; Baseline): 17 (15)
Rescue free days (%) ([7]; Baseline): 40.9 (41) %
Doses of Rescue Rx ([7]; Day 22): 3.5 (4)
Rescue free days (%) ([7]; Day 22): 68.4 (32) %
eNO (ppb) ([8]; Baseline): 19 (17.6) ppb
eNO (ppb) ([8]; Day 22): 9.8 (7.6) ppb
decrease in eNO ([8]; equimolar doses, baseline to day 22): 9.2 ppb
mean sputum neutrophils (sputum neutrophils; after 22 days, post hoc, patients with baseline sputum neutrophils <20% (normal)): 3.95%
mean sputum neutrophils (sputum neutrophils; after 22 days, post hoc, patients with baseline sputum neutrophils >20%): 51.9%
mean sputum neutrophils (sputum neutrophils; baseline, post hoc, patients with baseline sputum neutrophils <20% (normal)): 4.25%
mean sputum neutrophils (sputum neutrophils; baseline, post hoc, patients with baseline sputum neutrophils >20%): 55.1%
median sputum neutrophils (sputum neutrophils; day 0 prior to therapy): 39.6%
increase in median sputum neutrophils (sputum neutrophils; day 0 to day 22, all patients): 3.7%
median sputum neutrophils (sputum neutrophils; day 22 (end of therapy)): 41.1%
decrease in mean sputum neutrophils (sputum neutrophils; over 22 days, post hoc, patients with baseline sputum neutrophils >20%): 5.8%
change in standing pulse pressure [9]: +4.85 mmHg
